Where two headings read alike, the source gives them in different places.
How the values were obtained:
SKBR3 = assay: Proliferation assay, CellTiter-Glo, 72 hour; assay type: cell-based; conditions: breast cancer cell line, read-out: Inhibition of proliferation, SKBR3
CDK8/cyclin C = CDK8/cyclin C (Homo sapiens (Human), UniProt P49336); assay: Life Technologies LanthaScreen Eu kinase assay, CDK8; assay type: binding; conditions: read-out: Calculated IC50, CDK8/cyclin C
RS4-11 = assay: Proliferation assay, CellTiter-Glo, 72 hour; assay type: cell-based; conditions: blood cancer cell line, read-out: Inhibition of proliferation, RS4-11
HL60 = assay: Proliferation assay, CellTiter-Glo, 72 hour; assay type: cell-based; conditions: blood cancer cell line, read-out: Inhibition of proliferation, HL60
143B = assay: Proliferation assay, CellTiter-Glo, 72 hour; assay type: cell-based; conditions: osteosarcoma cell line, read-out: Inhibition of proliferation, 143B
CDK1/cyclin B = CDK1/cyclin B (Homo sapiens (Human), UniProt P06493); assay: Life Technologies Z'-Lyte kinase assay, CDK1; assay type: biochemical; conditions: read-out: Calculated IC50, CDK1/cyclin B
MLK3 = MLK3 (Homo sapiens (Human), UniProt Q16584); assay: Life Technologies LanthaScreen Eu kinase assay, MLK3; assay type: binding; conditions: read-out: Calculated IC50, MLK3
[1] = test system: Jurkat and Loucy leukemia cell lines; assay: Anti-proliferative effect, cell titer glo, 72 hours; assay type: cell-based
Protocol: Precipitated proteins were washed and probed for CDK7.
(§1) Proliferation assays were conducted over a 48-72 hour time period (as noted). […] Cancer cell line profiling was performed over a 72 time period using Alamar Blue reagent.
The phenylamino-pyrimidine (PAP) core scaffold is a “privileged” ATP-site directed pharmacophore with the most famous example being imatinib, a Bcr-Abl inhibitor approved to treat several cancers including Chronic Myelogenous Leukemia. Numerous PAP derivatives have been reported as potent inhibitors of various CDKs; however, efforts to achieve greater selectivity amongst the CDK family members have been hindered by the high sequence and structural similarity of CDKs. […] In an effort to explore broadly which CDKs might be targetable by a covalent inhibitor, a library of acrylamide-modified PAPs was built, and the library was subject to cell proliferation as well broad kinase selectivity profiling using the Kinativ chemical proteomics approach.

SAOS = assay: Proliferation assay, CellTiter-Glo, 72 hour; assay type: cell-based; conditions: osteosarcoma cell line, read-out: Inhibition of proliferation, SAOS
MCF10A = assay: Proliferation assay, CellTiter-Glo, 72 hour; assay type: cell-based; conditions: non-tumorigenic breast epithelial cell line, read-out: Inhibition of proliferation, MCF10A
A673 = assay: Proliferation assay, CellTiter-Glo, 72 hour; assay type: cell-based; conditions: Ewing's sarcoma cell line, read-out: Inhibition of proliferation, A673
CDK5/p25 = CDK5/p25 (Homo sapiens (Human), UniProt Q00535); assay: Life Technologies Z'-Lyte kinase assay, CDK5/p25; assay type: biochemical; conditions: read-out: Calculated IC50, CDK5/p25
T47D = assay: Proliferation assay, CellTiter-Glo, 72 hour; assay type: cell-based; conditions: breast cancer cell line, read-out: Inhibition of proliferation, T47D
[2] = test system: panel of >300 diverse cancer cell lines; assay: Cancer cell line panel profiling, alamarBlue, 72 hours; assay type: cell-based, human
Protocol: (§2) At indicated time points, cellular lysates were harvested at the indicated times points and immunoblotted for the indicated proteins. […] Anti-proliferative effects were determined using cell titer glo analysis. […] Anti-proliferative effects were determined using alamarBlue® analysis. […] Anti-proliferative effects were determined using cell titer glo analysis. […] Dose: i.v. 1 mg/kg and p.o. 10 mg/kg.
as §1
(§3) CDK7 inhibitors display strong antiproflierative effects in leukemia and lymphoma cancer cells. However, a better definition of the breadth of their therapeutic potential in other cell types has not been reported. […] The rationale for examining such a large panel of human cancer cell lines is based on the fact that there is substantial genetic heterogeneity among human tumor cells, even with the same histological origins. In general, the data reveal a bimodal distribution with cell lines displaying exquisite sensitivity or apparent complete insensitivity to the compound.

Jurkat = Jurkat (proliferation, CellTiter-Glo); assay type: cell-based; conditions: read-out: Calculated IC50, Jurkat
hTERT-HME1 = assay: Proliferation assay, CellTiter-Glo, 72 hour; assay type: cell-based; conditions: immortalized normal mammary epithelial cell line, read-out: Inhibition of proliferation, hTERT-HME1
[3] = test system: retinal pigment epithelial (RPE1) cells; assay: Anti-proliferative assay, cell titer glo, 72 hours; assay type: cell-based, human
Protocol: as §2, §1, §3

MCL-1 protein = assay: Immunoblot of BCL-2 family proteins in Loucy cells; assay type: cell-based; conditions: after 12 hours
Protocol: as §2
(§4) Consistent with its covalent inhibitory mechanism, similar results were seen over the same time span following washout (FIGS. 6A to 6B).

BCL-XL = assay: Immunoblot of BCL-2 family proteins in Loucy cells; assay type: cell-based; conditions: 12 to 48 hours
Protocol: as §2, §4

MDA-MB231 = assay: Proliferation assay, CellTiter-Glo, 72 hour; assay type: cell-based; conditions: breast cancer cell line, read-out: Inhibition of proliferation, MDA-MB231
RD-ES = assay: Proliferation assay, CellTiter-Glo, 72 hour; assay type: cell-based; conditions: Ewing's sarcoma cell line, read-out: Inhibition of proliferation, RD-ES
MV4-11 = assay: Proliferation assay, CellTiter-Glo, 72 hour; assay type: cell-based; conditions: blood cancer cell line, read-out: Inhibition of proliferation, MV4-11
JNK2 (MAPK9) = JNK2 (MAPK9) (Homo sapiens (Human), UniProt P45984); assay: Life Technologies Z'-Lyte kinase assay, JNK2; assay type: biochemical
MCF7 = assay: Proliferation assay, CellTiter-Glo, 72 hour; assay type: cell-based; conditions: breast cancer cell line, read-out: Inhibition of proliferation, MCF7

Sequence of JNK2 (MAPK9) (P45984 whole entry): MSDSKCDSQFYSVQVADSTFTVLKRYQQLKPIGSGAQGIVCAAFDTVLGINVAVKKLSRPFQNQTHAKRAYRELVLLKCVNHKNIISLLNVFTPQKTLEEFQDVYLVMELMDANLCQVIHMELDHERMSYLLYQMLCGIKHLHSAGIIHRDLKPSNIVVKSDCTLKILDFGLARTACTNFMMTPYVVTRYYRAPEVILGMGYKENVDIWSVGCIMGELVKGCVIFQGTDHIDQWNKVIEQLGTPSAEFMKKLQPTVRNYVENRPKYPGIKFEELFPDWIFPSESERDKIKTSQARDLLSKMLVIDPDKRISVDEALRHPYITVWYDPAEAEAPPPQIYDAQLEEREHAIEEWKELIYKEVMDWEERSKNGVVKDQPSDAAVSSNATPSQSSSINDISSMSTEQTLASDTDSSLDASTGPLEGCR
Sequence of MLK3 (Q16584 whole entry): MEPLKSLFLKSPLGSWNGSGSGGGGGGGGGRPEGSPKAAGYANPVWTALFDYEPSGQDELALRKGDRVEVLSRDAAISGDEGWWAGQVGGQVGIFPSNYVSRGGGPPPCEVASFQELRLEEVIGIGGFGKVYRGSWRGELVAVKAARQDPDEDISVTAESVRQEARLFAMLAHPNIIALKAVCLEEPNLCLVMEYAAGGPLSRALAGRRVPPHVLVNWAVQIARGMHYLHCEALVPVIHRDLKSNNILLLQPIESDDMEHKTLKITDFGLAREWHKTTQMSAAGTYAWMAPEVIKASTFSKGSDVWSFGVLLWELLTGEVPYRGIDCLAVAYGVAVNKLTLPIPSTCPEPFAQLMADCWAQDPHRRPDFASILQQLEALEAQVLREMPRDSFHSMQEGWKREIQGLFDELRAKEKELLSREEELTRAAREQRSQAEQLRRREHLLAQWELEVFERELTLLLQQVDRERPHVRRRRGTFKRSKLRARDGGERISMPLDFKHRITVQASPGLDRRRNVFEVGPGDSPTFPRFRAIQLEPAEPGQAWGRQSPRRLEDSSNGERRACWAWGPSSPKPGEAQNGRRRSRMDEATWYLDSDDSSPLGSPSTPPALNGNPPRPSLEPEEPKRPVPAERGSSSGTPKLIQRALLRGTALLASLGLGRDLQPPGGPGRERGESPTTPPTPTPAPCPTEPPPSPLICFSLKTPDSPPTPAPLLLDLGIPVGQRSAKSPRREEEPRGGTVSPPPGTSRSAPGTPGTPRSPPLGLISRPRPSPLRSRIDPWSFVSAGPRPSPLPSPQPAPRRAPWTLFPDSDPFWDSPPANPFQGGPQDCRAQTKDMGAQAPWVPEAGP
Sequence of CDK8/cyclin C (P49336 whole entry): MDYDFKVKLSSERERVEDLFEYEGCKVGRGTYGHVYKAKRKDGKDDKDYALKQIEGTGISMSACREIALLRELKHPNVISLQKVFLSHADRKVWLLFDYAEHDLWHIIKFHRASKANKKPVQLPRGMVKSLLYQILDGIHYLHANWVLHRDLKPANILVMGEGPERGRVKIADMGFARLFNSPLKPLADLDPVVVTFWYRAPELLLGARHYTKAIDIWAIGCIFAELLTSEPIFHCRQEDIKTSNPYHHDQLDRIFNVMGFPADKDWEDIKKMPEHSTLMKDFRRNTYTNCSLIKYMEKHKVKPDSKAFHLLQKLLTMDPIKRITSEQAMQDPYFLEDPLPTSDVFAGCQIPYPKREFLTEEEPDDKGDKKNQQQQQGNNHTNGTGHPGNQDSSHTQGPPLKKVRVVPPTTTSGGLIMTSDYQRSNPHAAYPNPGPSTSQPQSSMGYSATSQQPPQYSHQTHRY
Sequence of CDK8/cyclin C (P24863 whole entry partner): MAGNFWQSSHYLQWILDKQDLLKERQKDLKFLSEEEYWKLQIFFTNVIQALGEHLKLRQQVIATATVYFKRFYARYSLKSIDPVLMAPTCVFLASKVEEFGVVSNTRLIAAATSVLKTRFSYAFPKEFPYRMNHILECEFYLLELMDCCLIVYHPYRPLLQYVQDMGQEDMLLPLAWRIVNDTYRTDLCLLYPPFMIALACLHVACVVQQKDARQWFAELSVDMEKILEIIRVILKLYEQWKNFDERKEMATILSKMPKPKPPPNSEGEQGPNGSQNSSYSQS
Sequence of CDK5/p25 (Q00535 whole entry): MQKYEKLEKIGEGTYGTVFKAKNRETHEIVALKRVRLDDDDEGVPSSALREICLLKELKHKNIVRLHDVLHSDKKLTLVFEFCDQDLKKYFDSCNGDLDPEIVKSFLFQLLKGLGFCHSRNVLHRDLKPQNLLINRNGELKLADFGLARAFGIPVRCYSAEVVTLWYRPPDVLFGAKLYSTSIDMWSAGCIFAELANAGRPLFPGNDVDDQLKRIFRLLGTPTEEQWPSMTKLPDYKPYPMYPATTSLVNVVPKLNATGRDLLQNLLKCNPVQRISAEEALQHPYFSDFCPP
Sequence of CDK5/p25 (Q15078 99-307 partner): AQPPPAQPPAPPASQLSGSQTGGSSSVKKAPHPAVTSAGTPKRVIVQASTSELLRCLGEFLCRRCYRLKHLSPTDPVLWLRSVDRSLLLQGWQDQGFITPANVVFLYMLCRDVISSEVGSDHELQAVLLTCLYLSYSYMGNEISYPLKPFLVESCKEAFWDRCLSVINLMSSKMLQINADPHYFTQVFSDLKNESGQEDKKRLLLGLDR
Sequence of CDK1/cyclin B (P06493 whole entry): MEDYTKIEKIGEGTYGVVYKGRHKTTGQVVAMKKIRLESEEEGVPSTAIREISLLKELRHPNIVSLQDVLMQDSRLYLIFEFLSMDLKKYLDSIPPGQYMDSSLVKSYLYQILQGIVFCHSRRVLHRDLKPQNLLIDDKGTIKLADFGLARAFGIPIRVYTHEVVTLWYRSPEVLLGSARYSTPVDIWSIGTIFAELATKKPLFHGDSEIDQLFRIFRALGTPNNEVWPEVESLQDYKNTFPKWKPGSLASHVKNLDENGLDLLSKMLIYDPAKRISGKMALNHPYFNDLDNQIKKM
Sequence of CDK1/cyclin B (P14635 whole entry partner): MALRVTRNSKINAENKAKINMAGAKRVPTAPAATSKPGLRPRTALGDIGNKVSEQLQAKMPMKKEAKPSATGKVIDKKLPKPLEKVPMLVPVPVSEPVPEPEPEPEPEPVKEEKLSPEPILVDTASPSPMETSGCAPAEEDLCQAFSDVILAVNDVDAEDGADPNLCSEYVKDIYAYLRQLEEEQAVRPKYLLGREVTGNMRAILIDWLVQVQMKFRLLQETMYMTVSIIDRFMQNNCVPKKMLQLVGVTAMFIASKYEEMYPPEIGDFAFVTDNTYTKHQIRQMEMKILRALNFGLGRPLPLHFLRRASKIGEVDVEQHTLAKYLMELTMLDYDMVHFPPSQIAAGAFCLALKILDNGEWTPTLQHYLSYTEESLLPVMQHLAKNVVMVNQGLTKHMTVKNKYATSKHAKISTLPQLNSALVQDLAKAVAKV

With `CN(C)C/C=C/C(=O)Nc1ccc(C(=O)Nc2cccc(Nc3ncc(Cl)c(-c4c[nH]c5ccccc45)n3)c2)cc1` [Formula I-23] the IC50 (SKBR3) was 500 to 5000 nM, the IC50 (CDK8/cyclin C) was at least 1000 nM and the IC50 (RS4-11) was under 500 nM. The IC50 (HL60) was under 500 nM, the IC50 (143B) was over 5000 nM and the IC50 (CDK1/cyclin B) was 100 to 1000 nM. The IC50 (MLK3) was under 100 nM, the “Inhibition of proliferation of Jurkat and Loucy leukemia cell lines” value [1] was “potently inhibits proliferation” and the IC50 (SAOS) was under 500 nM. It also gave an IC50 (MCF10A) of under 500 nM, an IC50 (A673) of under 500 nM and an IC50 (CDK5/p25) of 100 to 1000 nM. The IC50 (T47D) was over 5000 nM, the IC50 ([2]; panel of >300 cancer cell lines, read-out: IC50 values in 24% of cell lines) was over 2500 nM and the IC50 ([2]; read-out: IC50s in 94% (132/140) of leukemia cell lines) was under 200 nM. The IC50 ([2]; read-out: IC50s in all (48/48) lymphoma cell lines) was under 150 nM, the IC50 ([2]; read-out: IC50 values in 70% of cell lines, panel of >300 cancer cell lines) was under 200 nM and the IC50 (Jurkat) was under 100 nM. For the same compound, the IC50 (hTERT-HME1) was under 500 nM, the “Sensitivity of untransformed RPE1 cells” value [3] was “largely resistant” and the “Concentration sufficient to elicit a reduction in MCL-1 protein levels” value (MCL-1 protein) was at most 100 nM. The “Reduction of BCL-XL protein levels” value (BCL-XL) was “not reduced even at higher concentrations”, the IC50 (MDA-MB231) was under 500 nM and the IC50 (RD-ES) was under 500 nM. For the same compound, the IC50 (MV4-11) was under 500 nM, the IC50 (JNK2 (MAPK9); read-out: Calculated IC50, JNK2 (MAPK9)) was 100 to 1000 nM and the “Percent inhibition, JNK2 ^b” value (JNK2 (MAPK9); superscript b (footnote not given; tested at 100 nM and 1 μM)) was “C (less than 50% inhibition)”. The IC50 (MCF7) was under 500 nM.
